Assay results published in article PMC8069832, “New Amides and Phosphoramidates Containing Selenium: Studies on Their Cytotoxicity and Antioxidant Activities in Breast Cancer” (Antioxidants, 2021).

These compounds were tested on MCF-7 (assay: cells). Conditions: Homo sapiens, MCF7, 48 h, read-out: Cell growth (%) MCF-7.
`N#C[Se]c1ccc(NP(=O)(Nc2ccccc2)Oc2ccccc2)cc1` (stereo not drawn) [II.2f] showed an activity at 10 µM of 61.4%.
Compound `N#C[Se]c1ccc(NC(=O)c2cccc3ccccc23)cc1` [I.2m] has an activity at 10 µM of 101%.
`O=P(Nc1ccc([Se][Se]c2ccc(NP(=O)(Oc3ccccc3)Oc3ccccc3)cc2)cc1)(Oc1ccccc1)Oc1ccccc1` [II.1c] was tested, and the activity at 10 µM was 94%.
For `O=P(Nc1ccccc1)(Nc1ccc([Se][Se]c2ccc(NP(=O)(Nc3ccccc3)Oc3ccccc3)cc2)cc1)Oc1ccccc1` (stereo not drawn) [II.1f], the activity at 10 µM was 90%.
Work on `O=C(Nc1ccc([Se][Se]c2ccc(NC(=O)c3cccs3)cc2)cc1)c1cccs1` [I.1i] yielded an activity at 10 µM of 104%.
`N#C[Se]c1ccc(NC(=O)/C=C/c2ccccc2)cc1` [I.2l] gave an activity at 10 µM of 65%.
Compound `COc1ccc(C(=O)Nc2ccc([Se][Se]c3ccc(NC(=O)c4ccc(OC)cc4)cc3)cc2)cc1` [I.1c] has an activity at 10 µM of 79%.
With `O=C(Nc1ccc([Se][Se]c2ccc(NC(=O)C34CC5CC(CC(C5)C3)C4)cc2)cc1)C12CC3CC(CC(C3)C1)C2` [I.1k] the activity at 10 µM was 88%.
Work on `N#C[Se]c1ccc(NC(=O)C23CC4CC(CC(C4)C2)C3)cc1` [I.2k] yielded an activity at 10 µM of 113%.
Compound `N#Cc1ccc(C(=O)Nc2ccc([Se][Se]c3ccc(NC(=O)c4ccc(C#N)cc4)cc3)cc2)cc1` [I.1d] has an activity at 10 µM of 79.1%.
`COc1ccc(C(=O)Nc2ccc([Se]C#N)cc2)cc1` [I.2c] gave an activity at 10 µM of 97.8%.
`CSc1ccc(C(=O)Nc2ccc([Se]C#N)cc2)cc1` [I.2n] showed an activity at 10 µM of 69.5%.
With `O=C(/C=C/c1ccccc1)Nc1ccc([Se][Se]c2ccc(NC(=O)/C=C/c3ccccc3)cc2)cc1` [I.1l] the activity at 10 µM was 76.7%.

What follows are compounds tested on CCRF-CEM (assay: cells). Conditions: Homo sapiens, 48 h, read-out: Cell growth (%) CCRF-CEM.
`N#C[Se]c1ccc(NP(=O)(Nc2ccccc2)Oc2ccccc2)cc1` (stereo not drawn) [II.2f] showed an activity at 10 µM of 22.3%.
With `N#C[Se]c1ccc(NC(=O)c2cccc3ccccc23)cc1` [I.2m] the activity at 10 µM was 70.9%.
`O=P(Nc1ccc([Se][Se]c2ccc(NP(=O)(Oc3ccccc3)Oc3ccccc3)cc2)cc1)(Oc1ccccc1)Oc1ccccc1` [II.1c] was tested, and the activity at 10 µM was 85.2%.
In the case of `O=P(Nc1ccccc1)(Nc1ccc([Se][Se]c2ccc(NP(=O)(Nc3ccccc3)Oc3ccccc3)cc2)cc1)Oc1ccccc1` (stereo not drawn) [II.1f], the activity at 10 µM was 125%.
`O=C(Nc1ccc([Se][Se]c2ccc(NC(=O)c3cccs3)cc2)cc1)c1cccs1` [I.1i] showed an activity at 10 µM of 100%.
For `N#C[Se]c1ccc(NC(=O)/C=C/c2ccccc2)cc1` [I.2l], the activity at 10 µM was 62%.
`COc1ccc(C(=O)Nc2ccc([Se][Se]c3ccc(NC(=O)c4ccc(OC)cc4)cc3)cc2)cc1` [I.1c] showed an activity at 10 µM of 57.5%.
`O=C(Nc1ccc([Se][Se]c2ccc(NC(=O)C34CC5CC(CC(C5)C3)C4)cc2)cc1)C12CC3CC(CC(C3)C1)C2` [I.1k] was tested, and the activity at 10 µM was 90.2%.
Compound `N#C[Se]c1ccc(NC(=O)C23CC4CC(CC(C4)C2)C3)cc1` [I.2k] has an activity at 10 µM of 107%.
In the case of `N#Cc1ccc(C(=O)Nc2ccc([Se][Se]c3ccc(NC(=O)c4ccc(C#N)cc4)cc3)cc2)cc1` [I.1d], the activity at 10 µM was 101%.
`COc1ccc(C(=O)Nc2ccc([Se]C#N)cc2)cc1` [I.2c] was tested, and the activity at 10 µM was 76.5%.
`CSc1ccc(C(=O)Nc2ccc([Se]C#N)cc2)cc1` [I.2n] showed an activity at 10 µM of 100%.
`O=C(/C=C/c1ccccc1)Nc1ccc([Se][Se]c2ccc(NC(=O)/C=C/c3ccccc3)cc2)cc1` [I.1l] showed an activity at 10 µM of 50%.

What follows are compounds tested on HT-29 (assay: cells). Conditions: Homo sapiens, HT-29, 48 h, read-out: Cell growth (%) HT-29.
Compound `N#C[Se]c1ccc(NP(=O)(Nc2ccccc2)Oc2ccccc2)cc1` (stereo not drawn) [II.2f] has an activity at 10 µM of 64.6%.
`N#C[Se]c1ccc(NC(=O)c2cccc3ccccc23)cc1` [I.2m] gave an activity at 10 µM of 101%.
`O=P(Nc1ccc([Se][Se]c2ccc(NP(=O)(Oc3ccccc3)Oc3ccccc3)cc2)cc1)(Oc1ccccc1)Oc1ccccc1` [II.1c] showed an activity at 10 µM of 109%.
With `O=P(Nc1ccccc1)(Nc1ccc([Se][Se]c2ccc(NP(=O)(Nc3ccccc3)Oc3ccccc3)cc2)cc1)Oc1ccccc1` (stereo not drawn) [II.1f] the activity at 10 µM was 106%.
In the case of `O=C(Nc1ccc([Se][Se]c2ccc(NC(=O)c3cccs3)cc2)cc1)c1cccs1` [I.1i], the activity at 10 µM was 98.2%.
`N#C[Se]c1ccc(NC(=O)/C=C/c2ccccc2)cc1` [I.2l] gave an activity at 10 µM of 76%.
`COc1ccc(C(=O)Nc2ccc([Se][Se]c3ccc(NC(=O)c4ccc(OC)cc4)cc3)cc2)cc1` [I.1c] was tested, and the activity at 10 µM was 81.4%.
Compound `O=C(Nc1ccc([Se][Se]c2ccc(NC(=O)C34CC5CC(CC(C5)C3)C4)cc2)cc1)C12CC3CC(CC(C3)C1)C2` [I.1k] has an activity at 10 µM of 97.1%.
Compound `N#C[Se]c1ccc(NC(=O)C23CC4CC(CC(C4)C2)C3)cc1` [I.2k] has an activity at 10 µM of 99.7%.
For `N#Cc1ccc(C(=O)Nc2ccc([Se][Se]c3ccc(NC(=O)c4ccc(C#N)cc4)cc3)cc2)cc1` [I.1d], the activity at 10 µM was 109%.
Work on `COc1ccc(C(=O)Nc2ccc([Se]C#N)cc2)cc1` [I.2c] yielded an activity at 10 µM of 93.3%.
`CSc1ccc(C(=O)Nc2ccc([Se]C#N)cc2)cc1` [I.2n] gave an activity at 10 µM of 101%.
Compound `O=C(/C=C/c1ccccc1)Nc1ccc([Se][Se]c2ccc(NC(=O)/C=C/c3ccccc3)cc2)cc1` [I.1l] has an activity at 10 µM of 93%.
